Biological target: T1, GECFINDER-Phe3 (Aneurinibacillus migulanus, UniProt P0C061)
T1 construct: gene grsA; GrsA-PheA-PCP; cpEGFP inserted in hinge B, linkers VF-QS
T1 sequence (P0C061 1-617): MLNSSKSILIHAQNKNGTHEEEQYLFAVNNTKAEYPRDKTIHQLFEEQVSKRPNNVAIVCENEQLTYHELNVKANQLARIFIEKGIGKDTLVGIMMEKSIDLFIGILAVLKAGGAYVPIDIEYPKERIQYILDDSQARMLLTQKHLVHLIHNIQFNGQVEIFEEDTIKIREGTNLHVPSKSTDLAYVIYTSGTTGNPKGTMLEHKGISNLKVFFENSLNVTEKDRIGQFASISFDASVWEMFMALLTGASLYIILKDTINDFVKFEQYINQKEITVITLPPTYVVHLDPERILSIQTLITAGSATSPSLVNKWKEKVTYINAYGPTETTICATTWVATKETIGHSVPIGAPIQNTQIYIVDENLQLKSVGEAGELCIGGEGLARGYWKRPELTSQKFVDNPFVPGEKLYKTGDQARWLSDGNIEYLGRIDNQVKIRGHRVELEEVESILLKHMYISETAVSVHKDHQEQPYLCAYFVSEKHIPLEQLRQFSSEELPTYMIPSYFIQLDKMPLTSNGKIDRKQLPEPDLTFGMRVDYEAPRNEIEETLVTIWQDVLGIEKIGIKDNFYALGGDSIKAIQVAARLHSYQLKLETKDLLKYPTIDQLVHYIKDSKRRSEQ
Test: Fluorescence dose-response of purified […]-Phe3 with phenylalanine in 100 mM Tris at pH 8.5, room temperature, 1 mM ATP, 2.5 mM MgCl2.
Format: biochemical
Settings: n = 3
Source text: As cpEGFP is sensitive to pH, we conducted a dose-response curve and fluorescence intensity analysis of […]-Phe3 at varying pH levels. […] In addition, we expanded the range of ligand-binding domains (LBDs) applicable to […] and attempted optimization of insertion sites for cpEGFP with limited success. Please refer to Supplemental Note 1 for detailed information.
The study conducted dose–response curve, substrate specificity, and fluorescent spectrum analyses in 100-mM Tris buffer (pH = 7.5), while pH stability experiments were performed in 100-mM Tris buffer at three different pH values (6.5, 7.5, and 8.5) at room temperature. […] Fluorescent signals were detected using a Microplate Reader (Synergy H4, Bio Tek) at an excitation/emission wavelength of 460 nm/510 nm or 480 nm/510 nm. The dose-response curve was determined immediately after the addition of the analyte. The total duration of the measurement was 15 min, with readings taken at one-minute intervals. The dose-response curve was plotted using the fluorescence values obtained after achieving stability in the fluorescence signal. […] The thermal stability of […] was analyzed using the UNcle multifunctional protein stability analysis system. […] Absolute fluorescence quantum yields were measured using an absolute photoluminescence quantum yield spectrometer (FS5, Edinburgh). […]

N[C@@H](Cc1ccccc1)C(=O)O [Phe, phenylalanine] showed an EC50 of 2380 nM.

Reference: publication PMC10590383, “Repurposing conformational changes in ANL superfamily enzymes to rapidly generate biosensors for organic and amino acids” (Nature Communications, 2023)
